How the values were obtained:
human ALX receptor = target: T1, human ALX receptor (Homo sapiens, UniProt P25090); assay: Intracellular calcium measurements (FLIPR), ALX receptor agonistic activity; type: cell-based; details: HEK293-hALXR-Ga16 cells, calcium flux, normalized to WKYMVm 10 nM; read-out: EC50 (agonistic activity with respect to the ALX receptor)
T1 construct: expressed in transfected cells; host or cells: HEK293 (HEK293-hALXR-Ga16)
T1 sequence (P25090 1-351): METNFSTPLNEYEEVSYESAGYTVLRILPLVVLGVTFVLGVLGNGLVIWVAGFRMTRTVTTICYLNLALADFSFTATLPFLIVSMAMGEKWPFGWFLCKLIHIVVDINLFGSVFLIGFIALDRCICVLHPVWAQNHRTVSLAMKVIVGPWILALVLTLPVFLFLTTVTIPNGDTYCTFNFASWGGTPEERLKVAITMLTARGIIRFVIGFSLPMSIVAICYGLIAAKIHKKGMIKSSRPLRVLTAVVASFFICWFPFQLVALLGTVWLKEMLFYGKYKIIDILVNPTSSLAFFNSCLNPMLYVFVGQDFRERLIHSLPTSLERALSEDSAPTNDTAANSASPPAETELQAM
Method: The ALX receptor agonistic activity of the compounds of formula (I) is determined in accordance with the following experimental method.
Intracellular Calcium Measurements:
Cells expressing recombinant human ALX receptor and the G-protein Ga16 (HEK293-hALXR-Ga16) were grown to 80% confluency in Growing Medium (GM). Cells were detached from culture dishes with a cell dissociation buffer (Invitrogen, 13151-014), and collected by centrifugation at 1′000 rpm at rt for 5 min in Assay Buffer (AB) (equal parts of Hank's BSS (Gibco, 14065-049) and DMEM without Phenol Red (Gibco, 11880-028)). After 60 min incubation at 37° C. under 5% CO2 in AB supplemented with 1 μM Fluo-4 (AM) (Invitrogen, F14202) and 20 mM HEPES (Gibco, 15630-056), the cells were washed and resuspended in AB. They were then seeded onto 384-well FLIPR assay plates (Greiner, 781091) at 50′000 cells in 70 μl per well and sedimented by centrifugation at 1′000 rpm for 1 min. Stock solutions of test compounds were made up at a concentration of 10 mM in DMSO, and serially diluted in AB to concentrations required for activation dose response curves. WKYMVm (Phoenix Peptides) was used as a reference agonist. A FLIPR Tetra instrument (Molecular Devices) was operated according to the manufacturer's standard instructions, adding 4 μl of test compound dissolved at 10 mM in DMSO and diluted prior to the experiment in assay buffer to obtain the desired final concentration. Changes in fluorescence were monitored before and after the addition of test compounds at lex=488 nm and lem=540 nm. Emission peak values above base level after compounds addition were exported after base line subtraction. Values were normalized to high-level control (WKYMVm compound, 10 nM final concentration) after subtraction of the base line value (AB addition).

[1] = system: proteins of human liver microsomes (HLM); assay: Covalent binding between reactive metabolites and proteins using human liver microsomes; type: in vitro ADME
Method: Assay for Covalent Binding Between Reactive Metabolites and Proteins Using Human Liver Microsomes
The objective of the described covalent binding assay is to determine the amount of covalent binding between reactive metabolites and proteins of human liver microsomes (HLM) per hour following incubation in the presence of an NADPH regenerating system. The measured covalent binding rate is expressed in pmol bound drug equivalent/mg protein/h. It is a well-known advantage if compounds have a low tendency to bind covalently to proteins.
The radiolabelled compounds (^3H or ^14C) were incubated at a concentration of 10 μM in a single 96 well plate with 1.0 mg/mL of human liver microsomes in 0.1 M phosphate buffer (pH 7.4). To this end, a volume of 2.5 μL 1 mM stock solution prepared in the respective solvent (ethanol) was added to a final volume of 250 μL. Incubations were performed in the absence or presence of the NADPH-regenerating system with glucose-6-phosphate dehydrogenase (20 IU/ml dehydrogenase, 25 μl with 11 mM NADP sodium salt, 100 mM glucose-6-phosphate disodium salt, 100 mM MgCl2 in 0.1 M Tris buffer, pH 7.4) and additionally in the absence or presence of 5 mM GSH to trap reactive intermediates. An initial blank value without NADPH without incubation was also determined to determine unspecific rapid binding. Reactions were initiated by addition of 25 μL of an NADPH-regenerating system and terminated after one hour by adding 200 μL of the incubation mixture on a multiscreen deep well solvinert 96 hydrophobic PTFE filter plate (Millipore, Zug, Switzerland) containing 260 μL of ice-cold acetonitrile. The precipitation of microsomal proteins was completed by shaking the plate at 600 rpm at a temperature of 15° C. for 15 min. Finally, the precipitated incubation was stored at 4° C. for 15 min in the fridge. Proteins and filtrates were separated by centrifugation at 1800 g for 20 min at 10° C. The protein pellet was washed to remove unspecific binding with 800 μL of methanol/0.1% sulfuric acid (v/v) by centrifugation at 1500 g, 10° C. and 2 min. The washing step was repeated six times. The washed protein pellet was redissolved by addition of 500 μL of aqueous 0.1% (w/v) NaOH/1% (w/v) SDS. The filter plate was shaken at 400 rpm for 45 min at 60° C. and centrifugated at 2000 g for 20 min at 35° C. This step was repeated once and the protein solutions were combined.
For the determination of total radioactivity, an aliquot of 400 μL protein solution was mixed with 4 mL of liquid scintillation cocktail (Irga Safe plus, Perkin Elmer, Zurich, Switzerland) and analyzed using a Tricarb 2300 TR liquid scintillation analyzer (Perkin Elmer) with luminescence correction and on-line quenching correction by means of an external standard (^133Ba). For the determination of total protein content, an aliquot of 20 μL protein solution was analyzed using the BCA protein assay kit (Perbio Science Switzerland SA, Lausanne, Switzerland). The amount of covalent binding to microsomal proteins was calculated as follows: Dividing the determined amount of bound drug equivalent with NADPH (background subtracted by the amount of bound drug equivalent without NADPH) by the calculated amount of protein of redissolved washed protein pellet in each well gives the amount of bound drug equivalent in pmol/mg protein per hour.

Compound	EC50 (human ALX receptor)	further results
CC(F)(F)c1csc(Cn2ncc(NC(=O)c3ncoc3-c3ccc(F)cc3)n2)n1 [Example 25, 5-(4-Fluoro-phenyl)-oxazole-4-carboxylic acid {2-[4-(1,1-difluoro-ethyl)-thiazol-2-ylmethyl]-2H-[1,2,3]triazol-4-yl}-amide]	221 nM	–
Cc1cc(F)cc(-c2oc(C)nc2C(=O)Nc2cnn(Cc3ccc(C(C)(F)F)o3)n2)c1 [Example 26, 5-(3-Fluoro-5-methyl-phenyl)-2-methyl-oxazole-4-carboxylic acid {2-[5-(1,1-difluoro-ethyl)-furan-2-ylmethyl]-2H-[1,2,3]triazol-4-yl}-amide]	742 nM	–
Cc1nc(C(=O)Nc2cnn(Cc3ccc(C(C)(F)F)o3)n2)c(-c2cccc(OC(F)(F)F)c2)o1 [Example 27, 2-Methyl-5-(3-trifluoromethoxy-phenyl)-oxazole-4-carboxylic acid {2-[5-(1,1-difluoro-ethyl)-furan-2-ylmethyl]-2H-[1,2,3]triazol-4-yl}-amide]	59 nM	–
CC(F)(F)c1ccc(Cn2ncc(NC(=O)c3ncoc3-c3ccccc3)n2)o1 [Example 28, 5-Phenyl-oxazole-4-carboxylic acid {2-[5-(1,1-difluoro-ethyl)-furan-2-ylmethyl]-2H-[1,2,3]triazol-4-yl}-amide]	6 nM	–
Cc1nc(C(=O)Nc2cnn(Cc3nc(C(C)(F)F)cs3)n2)c(-c2cccc(Cl)c2)o1 [Example 29, 5-(3-Chloro-phenyl)-2-methyl-oxazole-4-carboxylic acid {2-[4-(1,1-difluoro-ethyl)-thiazol-2-ylmethyl]-2H-[1,2,3]triazol-4-yl}-amide]	5.6 nM	–
CCc1nc(C(=O)Nc2cnn(Cc3nc(C(C)(F)F)cs3)n2)c(-c2ccccc2)o1 [Example 30, 2-Ethyl-5-phenyl-oxazole-4-carboxylic acid {2-[4-(1,1-difluoro-ethyl)-thiazol-2-ylmethyl]-2H-[1,2,3]triazol-4-yl}-amide]	11 nM	–
Cc1cccc(-c2oc(C)nc2C(=O)Nc2cnn(Cc3nc(C(C)(F)F)co3)n2)c1 [Example 31, 2-Methyl-5-m-tolyl-oxazole-4-carboxylic acid {2-[4-(1,1-difluoro-ethyl)-oxazol-2-ylmethyl]-2H-[1,2,3]triazol-4-yl}-amide]	2.4 nM	Covalent binding profile compared to compounds of WO 2009/077990 ([1]; in words, versus examples 18 and 75 of WO 2009/077990): superior covalent binding profile; Covalent binding, HLM with NADPH and GSH ([1]; tritiated compound 10 μM, 1.0 mg/mL HLM, 1 h, with NADPH and 5 mM GSH): 28 pmol/mg protein per hour; Covalent binding, HLM with NADPH ([1]; tritiated compound 10 μM, 1.0 mg/mL HLM, 1 h, with NADPH-regenerating system): 22 pmol/mg protein per hour; Covalent binding, HLM without NADPH ([1]; tritiated compound 10 μM, 1.0 mg/mL HLM, 1 h, without NADPH): 3 pmol/mg protein per hour; Covalent binding, HLM with NADPH (background corrected as described above) [amount of bound drug equivalent] ([1]; tritiated compound 10 μM, 1.0 mg/mL HLM, 1 h, value without NADPH subtracted): 19 pmol/mg protein per hour
Cc1nc(C(=O)Nc2cnn(Cc3nc(C(C)(F)F)co3)n2)c(-c2ccccc2)o1 [Example 33, 2-Methyl-5-phenyl-oxazole-4-carboxylic acid {2-[4-(1,1-difluoro-ethyl)-oxazol-2-ylmethyl]-2H-[1,2,3]triazol-4-yl}-amide]	2.9 nM	–
Cc1nc(C(=O)Nc2cnn(Cc3nc(C(C)(F)F)co3)n2)c(-c2ccc(F)c(N(C)C)c2)o1 [Example 36, 5-(3-Dimethylamino-4-fluoro-phenyl)-2-methyl-oxazole-4-carboxylic acid{2-[4-(1,1-difluoro-ethyl)-oxazol-2-ylmethyl]-2H-[1,2,3]triazol-4-yl}-amide]	77 nM	–

Further molecules by falling EC50 (human ALX receptor), results first:

EC50 (human ALX receptor)	Compound	further results
12 nM	Cc1cccc(-c2oc(C)nc2C(=O)Nc2cnn(Cc3coc(C(C)(F)F)n3)n2)c1 [Example 32, N-(2-((2-(1,1-Difluoroethyl)oxazol-4-yl)methyl)-2H-1,2,3-triazol-4-yl)-2-methyl-5-(m-tolyl)oxazole-4-carboxamide]	–
6.1 nM	CN(C)c1cccc(-c2ocnc2C(=O)Nc2cnn(Cc3nc(C(C)(F)F)co3)n2)c1 [Example 34, 5-(3-Dimethylamino-phenyl)-oxazole-4-carboxylic acid {2-[4-(1,1-difluoro-ethyl)-oxazol-2-ylmethyl]-2H-[1,2,3]triazol-4-yl}-amide]	–
4 nM	CN(C)c1cc(-c2ocnc2C(=O)Nc2cnn(Cc3nc(C(C)(F)F)co3)n2)ccc1F [Example 35, 5-(3-Dimethylamino-4-fluoro-phenyl)-oxazole-4-carboxylic acid {2-[4-(1,1-difluoro-ethyl)-oxazol-2-ylmethyl]-2H-[1,2,3]triazol-4-yl}-amide]	–
2.1 nM	Cc1nc(C(=O)Nc2cnn(Cc3ccc(C(C)(F)F)o3)n2)c(-c2cccc(C(F)(F)F)c2)o1 [Example 24, 2-Methyl-5-(3-trifluoromethyl-phenyl)-oxazole-4-carboxylic acid {2-[5-(1,1-difluoro-ethyl)-furan-2-ylmethyl]-2H-[1,2,3]triazol-4-yl}-amide]	–

Reference: patent publication US8580831B2, “Fluorinated aminotriazole derivatives” (Actelion Pharmaceuticals Ltd., priority 2009, dated 2013)
